Consider one compound from publication PMC8923065, “Paeoniflorin reduce luxS/AI-2 system-controlled biofilm formation and virulence in Streptococcus suis” (Virulence, 2021).

This assay concerns the target T1, LuxS (Streptococcus suis, UniProt B2CMA5).
T1 construct: recombinant from pET28-luxS in E. coli BL21(DE3), HisTrap purified
The assay is described as follows: Ellman assay of homocysteine, […] nm, Michaelis-Menten fit. The format is biochemical. As to conditions: SRH as substrate, 6.25-25 ug/ml PF, pH 7.2, 37 °C; competitive; partial inhibition.

T1 sequence (B2CMA5 entry or part of it): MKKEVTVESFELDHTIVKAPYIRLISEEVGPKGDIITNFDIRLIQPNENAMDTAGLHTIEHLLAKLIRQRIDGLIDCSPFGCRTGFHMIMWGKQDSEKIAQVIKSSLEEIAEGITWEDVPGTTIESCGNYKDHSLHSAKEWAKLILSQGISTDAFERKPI

For the compound `C[C@@]12C[C@@]3(O)O[C@@H](O1)[C@]1(COC(=O)c4ccccc4)[C@H]3C[C@@]12O[C@@H]1O[C@H](CO)[C@@H](O)[C@H](O)[C@H]1O` [PF, paeoniflorin], the “Ellman assay of homocysteine, 412 nm, Michaelis-Menten fit” value is given as “the Km value of LuxS gradually increases, although the maximum reaction rate does not change”.
